Test results published in patent US9707239B2, “Compounds that modulate oxidative stress” (vTv Therapeutics LLC, priority 2011, dated 2017).
Entries after “also recorded” stand apart in the source; their conditions may differ.

Key:
Format in all cases: cell-based, human
Keap1 = assay: HMOX1 induction after Keap1 silencing (shRNA); details: NHLF cells, FIG. 6
Description: Normal human lung fibroblasts were plated in a 12-well tissue culture dish at 16,000 cells/well and allowed to attach overnight. Regular medium was then replaced with 200 μl of fresh growth medium containing 8 μg/ml hexadimethrine bromide (polybrene). Lentiviral transduction particles were then added in the following amounts: Control shRNA (1.1×10^7 TU/ml, Sigma, cat# SHC002V), 15 μl for an MOI of 10; KEAP-1 shRNA (6.3×10^6 TU/ml, Sigma, cat# SHCLNV-TRCN0000046092), 63 μl for an MOI of 20. After 4 hours in the cell culture incubator, another 200 μl of growth medium was added on top of the original volume. Cells were replenished the next day with fresh complete growth medium and were allowed to recover for 24 hours, after which selection medium was applied (complete medium with 1 μg/ml puromycin).
Another method of testing the role of the Nrf2 regulatory pathway on compound activity is to determine the effect of silencing Keap1 on HMOX1 gene expression. It is known that deleting Keap1 will result in the induction of Nrf2 dependent genes but not, to any significant degree, HMOX1. The proposed explanation for this observation is that HMOX1 requires the concomitant derepression of Bach1 activity and that this event is more dependent on active processes (e.g., heme binding, changes in redox potential of the cell, phosphorylation of Bach1, etc.). We therefore tested the ability of Compound 13 and tool compounds to induce HMOX1 in the presence of silencing of Keap1 in normal human lung fibroblasts.
Normal human lung fibroblasts were tested with DMSO, CoPP, Compound 13, and two derivatives including Compound 4 and Compound 8. An electrophile, Compound 1, was also included in the test set. […] On the other hand, induction of HMOX1 by the electrophile Compound 1 was inhibited.

NQO1 = assay: mRNA expression (Quantigene Plex) in NHLF cells: NQO1; details: Table 5, 6 h, mRNA normalized to GAPDH, above DMSO treated cells
Description: (§1) Secondary growth of NHLF cells were used for all assays. Cell were thawed and then placed into culture in T225 flasks. The cells were grown to 80% confluency and harvested by washing once with HEPES buffered saline solution and then trypsinizing. Equal numbers (7×10^3 cells per well) of NHLF cells were plated in 96 well tissue culture plates (Corning). Cells were incubated overnight in FGM-2 medium prior to exposure to compound. Cells were treated with either DMSO or a compound as described below for 6 h. Preparation of cell lysates was carried out according to instructions using the Quantigene Reagent system 2.0 protocol (Panomics). mRNA induction was detected from cell lysate using the Quantigene Plex 2.0 Assay Kit (Panomics) on the Luminex platform (BIO-RAD). Expression of GAPDH mRNA was used as the internal control for the Quantigen Plex 2.0 Assay. The data in Tables 5 and 6 represents the fold change of target mRNA expression, normalized to control values, above DMSO treated cells.

GADD45A = assay: mRNA expression (Quantigene Plex) in NHLF cells: GADD45A; details: Table 5, 6 h, mRNA normalized to GAPDH, above DMSO treated cells
Description: as §1

NHLF cells = assay: ROS measurements (H2DCF-DA imaging); details: 1 hr, cell-by-cell imaging, FIG. 3A/3B
Summary of the method: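 Secondary-passage NHLF cells (2,000/well, overnight) loaded 30 min with H2DCF-DA, 10 μM ferric ammonium citrate and Hoechst, washed, then treated with compound in FBM-2 medium 1 h at 37 °C, 5% CO2. ROS quantified by automated fluorescence imaging of DCF signal.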

HSPA6 = assay: mRNA expression (Quantigene Plex) in NHLF cells: HSPA6; details: Table 5, 6 h, mRNA normalized to GAPDH, above DMSO treated cells
Description: as §1

TXNRD1 = assay: mRNA expression (Quantigene Plex) in NHLF cells: TXNRD1; details: Table 5, 6 h, mRNA normalized to GAPDH, above DMSO treated cells
Description: as §1

Nrf2 = assay: HMOX1 mRNA induction after Nrf2 siRNA silencing; details: NHLF cells, 50 nM siRNA 48 hours, FIG. 5
Description: Small interfering RNA targeting Nrf-2 (cat# SI03246614) or KEAP-1 (cat# SI03246439) were obtained from Qiagen at 20 nmol/tube. Negative control siRNA (cat#1027280) was also obtained from Qiagen. Lyophilized siRNA in each tube was resuspended with 1 ml of the provided siRNA Suspension Buffer to make a stock solution of 20 μM and tubes were heated at 90° C. for one minute and then at 37° C. for one hour prior to initial use.
Normal human lung fibroblasts were plated at 5000 cells/well in 96-well plates and allowed to attach. Prior to experiments, well s containing the cells were refreshed with 30 μl of complete growth medium. For each siRNA type, a 4× concentration (200 nM) of siRNA was prepared by adding 11 μl of siRNA stock into 1.1 ml of serum-free medium containing 9 μl/ml of SILENTFECT Lipid Reagent (BioRad, cat#170-3361). This solution was incubated at room temperature for 20 minutes prior to adding 10 μl into each well for a final concentration of 50 nM siRNA. Cells were incubated with siRNA for 48 hours, after which they were treated with compound for either 5 hours (QuantiGene RNA assay) or 15 hours (protein immunofluorescence assay).
The predicted response profile is that silencing of Nrf2 should reduce the amount of HMOX1 induction by Compound 13 and other HMOX1 inducers that are electrophiles or reactive compounds. To that end, Compound 13 and other tool compounds were tested in cells that were treated with siRNA directed to Nrf2. Following gene silencing with specific siRNA or control siRNA, the ability of tool compounds to induce HMOX1 mRNA was determined.

NQO1 (fold induction) (NQO1): shown to induce
NQO1 (fold induction) (NQO1; listed as #13): 2.2 fold induction
GADD45A (fold induction) (GADD45A): 0.89 fold induction
HSPA6 (fold induction) (HSPA6): did not induce
HSPA6 (fold induction) (HSPA6; listed as #13): 0.96 fold induction
TXNRD1 (fold induction) (TXNRD1): shown to induce
TXNRD1 (fold induction) (TXNRD1; listed as #13): 1.5 fold induction
SMILES: O=C(Nc1ccc2cn[nH]c2c1)c1ccc2[nH]c(Nc3nc4ccccc4s3)nc2c1 [Compound 13, 2-(Benzothiazol-2-ylamino)-1H-benzoimidazole-5-carboxylic acid (1H-indazol-6-yl)-amide]
HMOX1 induction in the presence of Keap1 silencing (Keap1): unaffected in their ability to induce HMOX1 in the presence of Keap1 silencing; also recorded: behaves similarly to CoPP induction
ROS production (in words) (NHLF cells): modestly elevated ROS production; also recorded: little increase in ROS production
HMOX1 mRNA induction with siRNA directed to Nrf2 (Nrf2): affected by the presence of the siRNA for Nrf2; also recorded: requires Nrf2 for full induction of HMOX1 mRNA
